Earlier results on 50 compounds are cited in the CATMoS acute toxicity set (Mansouri et al. 2021).

Molecules are shown by their SMILES.

The nature of this data set: rat acute oral toxicity. Conditions: in vivo. The source says:
[…]The data set underlying the modeling effort for this project was initially compiled by NICEATM and U.S. EPA’s CCTE. Briefly, LD50 data were collected from rat acute oral systemic toxicity tests, including limit tests, ranges/confidence intervals, and discrete LD50 values. The full data set included 21,200 LD50 entries for 15,688 substances. […] Data were reviewed to ensure that LD50 values with obvious errors in the extracted data such as unit conversion errors (e.g., comma and decimal separator misplacements) were either fixed or removed. After this review, 16,209 LD50 values remained. Many of the chemicals represented had multiple LD50 entries, requiring that a single representative value per Chemical Abstracts Service Registry Number (CASRN) identifier be defined to facilitate modeling efforts. Based on ATWG feedback and to define the representative LD50 as a protective value while accounting for the distribution across multiple LD50s, the median of the lowest quartile was computed using only discrete LD50 values (omitting limit test data and range and confidence interval data). A detailed summary of the data compilation is available online on the NICEATM webpage dedicated to the collaborative modeling project (NTP 2020).
[…][…] For categorical designations, limit test and range/confidence interval LD50 data were integrated wherever possible. As such, the number of chemicals with end point values/calls varies across the modeling end points (Table 3) based on whether chemicals had representative LD50 values and/or other data. If a chemical had both, the representative value was used to determine categorical calls rather than limit test data. Some data were useable only for certain end points and categories depending on the thresholds. For example, ranges that spanned multiple hazard categories were considered only for the binary (very toxic/nontoxic) end points and omitted from rendering a determination for hazard category assignment.
[…]The final data set comprising 11,992 chemicals was split into training and evaluation sets […], respectively. This process was performed semirandomly by ordering chemicals based on the five end points (categorical and continuous LD50 values) and partitioning every fourth record into the evaluation set accordingly. This approach was taken to ensure an equivalent distribution of the LD50 values and the different hazard categories between the training and the evaluation sets without supervised sampling of the chemicals based on structures (Figure 1A). The sources of the chemical structures were also kept equivalent between the two sets, with chemical structures obtained from DSSTox, being the highest quality, representing over 75% of each set (Figure 1B).
For orientation: LD50 means the dose expected to kill half of the subjects tested. Take `CN(C)c1ccc(-c2nc(=O)n(C)nc2-c2ccc(N(C)C)cc2)cc1`: the LD50 is 3000 mg/kg.

For `FC(F)(F)c1ccc(Cl)c(Cl)c1`, the LD50 is 1150 mg/kg.

With `CCc1c(C)nc2ccc(Cl)cn2c1=O`, the median lethal dose (LD50) was 1100 mg/kg.

Take `Cc1cc(=O)nc(SCc2ccccc2N(C)C)[nH]1`: the LD50 is 2400 mg/kg.

On to `CC(CCC(=O)O)C(=O)O` (stereo not given), for which the LD50 is 300 mg/kg.

For `O=C(O)c1ccc(Cl)c([N+](=O)[O-])c1`, the LD50 is 3150 mg/kg.

For `CCCCCCCCCCCC[N+](CCO)(CCO)Cc1ccccc1`, the median lethal dose (LD50) was 750 mg/kg.

Regarding `CCCN=C(NCCC)C(OCC)c1ccc(Cl)cc1` (stereo not given), the median lethal dose (LD50) is 47 mg/kg.

Turning to `CCCCCCOC(=O)CC#N`, the LD50 is 6440 mg/kg.

Regarding `CN1CCC2(C)c3cc(OC(=O)NCCCCCCCCN4CCSCC4)ccc3N(C)C12` (stereo not given), the LD50 was 23.8 mg/kg.

Take `CCSC(C)CC1CC(=O)C(/C(CC)=N/OC/C=C/Cl)=C(O)C1` (stereo not given): the LD50 was 1360 mg/kg.

Regarding `O=COCCCc1ccccc1`, the LD50 is 4090 mg/kg.

For the compound `CCOc1cc(C=O)ccc1O`, the LD50 is 1590 mg/kg.

Turning to `ClC1=C(Cl)[C@]2(Cl)[C@@H]3C[C@@H](Cl)[C@@H](Cl)[C@@H]3[C@@]1(Cl)C2(Cl)Cl` (racemic), the LD50 was 500 mg/kg.

In the case of `OCC[N+](CCO)(CCO)CCO`, the LD50 was 2250 mg/kg.

Turning to `C[N+]1(CCC(O)(c2ccccc2)c2cccs2)CCOCC1` (stereo not given), the LD50 was 2300 mg/kg.

Turning to `O=S(=O)(c1cccc2cnccc12)N1CCCNCC1`, the LD50 was 335 mg/kg.

Turning to `CCCCCCCCOC(C[n+]1ccccc1)c1ccc(C2CCCCC2)cc1` (stereo not given), the LD50 was 250 mg/kg.

With `CC(C)c1cc(Oc2c(I)cc(CC(=O)O)cc2I)ccc1O`, the LD50 was 5.4 mg/kg.

Regarding `CC(C)N=C1SC(=NOC(=O)N(C)SN(C)C(=O)ON=C2SC(=NC(C)C)SC2(C)C)C(C)(C)S1`, the LD50 was 113 mg/kg.

For the compound `CN(C/C=C/C#CC(C)(C)C)Cc1cccc2ccccc12`, the LD50 is 4000 mg/kg.

As to `CCCCCCCCCCCCCCCCOCCOCCOCCOCCOCCOCCOCCOCCOCCOCCOCCOCCOCCOCCOCCOCCOCCOCCOCCOCCO`, the LD50 was 2500 mg/kg.

Regarding `CCCCC(CC)COC(CBr)c1cccc(Cl)c1` (stereo not given), the LD50 was 250 mg/kg.

Take `CC(C)=CCN(CC=C(C)C)CCC(C)(C(N)=O)c1cccc2ccccc12` (stereo not given): the LD50 is 353 mg/kg.

For the compound `Nc1ccc(S(=O)(=O)O)c2cccc(O)c12`, the median lethal dose (LD50) is 6210 mg/kg.

For `CCCCN(CCCC)CCC(O)c1cc2c(Cl)cc(Cl)cc2c2cc(C(F)(F)F)ccc12` (stereo not given), the LD50 is 3400 mg/kg.

With `CNC(=O)ON=C1CS(=O)CCS1` (stereo not given), the LD50 is 12.3 mg/kg.

As for `CC[C@@H](COC(=O)c1cc(OC)c(OC)c(OC)c1)N(C)CCN(C)[C@@H](CC)COC(=O)c1cc(OC)c(OC)c(OC)c1`, the LD50 was 1500 mg/kg.

Consider `C/C=C1/C[C@@H](C)[C@](O)(CO)C(=O)OCC2=CC[N+]3([O-])CC[C@@H](OC1=O)[C@@H]23` (stereo not given in full), for which the LD50 was 48 mg/kg.

On to `CC1N=C(N)CC1c1ccccc1` (stereo not given), for which the LD50 was 420 mg/kg.

With `CC(C)=CCC1=C(O)C(C(=O)CC(C)C)=C(O)C(CC=C(C)C)(CC=C(C)C)C1=O`, the LD50 is 100 mg/kg.

For the compound `COc1cnc(C)s1`, the LD50 was 1250 mg/kg.

For the compound `CCCCN(CCCC)CCCC`, the LD50 was 114 mg/kg.

As to `CCCc1c(OCc2cccn3c(=O)c(CC(=O)O)cnc23)ccc(C(C)=O)c1O`, the 50% lethal dose (LD50) was 4000 mg/kg.

Take `CCC1(CC)Oc2cccc(OC(=O)N(C)C(C)=O)c2O1`: the LD50 is 375 mg/kg.

For the compound `O=C1C2C3C=C(C(O)(c4ccccc4)c4ccccn4)C(C3=C(c3ccccc3)c3ccccn3)C2C(=O)N1Cc1ccccn1` (stereo not given), the LD50 is 5.2 mg/kg.

For `COc1ccc(C(=O)CCC(=O)O)c2ccccc12`, the LD50 is 1800 mg/kg.

Turning to `CC(Br)(CCl)CBr` (stereo not given), the LD50 is 780 mg/kg.

With `FC(F)(F)C(F)(F)C(F)(F)C(F)(F)C(F)(F)C(F)(F)CCI`, the LD50 was 3870 mg/kg.

Take `ClCc1ccc(CCl)cc1`: the LD50 was 1280 mg/kg.

On to `O=C(Cc1ccc(-c2ccccc2)cc1)OCCF`, for which the LD50 is 6 mg/kg.

On to `CC(=O)OC1CC(C)CCC1C(C)C` (stereo not given), for which the LD50 was 7620 mg/kg.

Consider `CC1CCCC2N(C)C=C(C(N)=O)C(=O)N12` (stereo not given), for which the LD50 is 370 mg/kg.

Regarding `N=C(N)NCCN1CCCCCCC1`, the LD50 was 1050 mg/kg.

As for `CCCN=C(N)C(OCC)c1ccccc1` (stereo not given), the median lethal dose (LD50) is 530 mg/kg.

As to `BrC(Br)C(Br)Br`, the LD50 was 1200 mg/kg.

Take `Cc1ncc(CO)c(C=O)c1O`: the LD50 is 2150 mg/kg.

Regarding `CC1=C(C(=O)OCOC(=O)C(C)(C)C)N2C(=O)[C@@H](NC(=O)C(N)c3ccccc3)[C@H]2SC1` (stereo not given in full), the LD50 was 4000 mg/kg.

As for `CC(C)c1cccc(C(C)(C)O)c1`, the LD50 was 6000 mg/kg.

In the case of `COc1cc(C2c3cc4c(cc3C(OC3OC5COC(c6ccccc6)OC5C(O)C3O)C3COC(=O)C23)OCO4)cc(OC)c1O` (stereo not given), the LD50 was 823 mg/kg.
